The term IC50 denotes the concentration needed to halve the response being measured. The low end stands for greater potency, the high end for weaker potency. For orientation: MTD means the highest dose tested that stayed within the study's limit of toxicity. Low values mean poorer tolerability, high ones better tolerability.

Each structure is given as a SMILES string.

For one data set, the system named is HT-29. Description: In vitro cell experiment (MTT), HT-29. The format is cell-based. The conditions noted are these: 72 h, human colon carcinoma cells (expressing both c-KIT and PDGFR). On the procedure: (§1) Cells in logarithmic growth phase were seeded at a certain density in a 96-well plate (200 μL/well). The cells were allowed to grow for 24 h and subsequently treated with different concentrations of drugs (including a blank group and a control group) and incubated for 72 h at 37° C. Each concentration in a given experiment was tested in triplicate. After 72 h of exposure, 20 μL of the MTT labeling reagent was added to the medium (the final concentration of MTT was 0.5 mg/mL), and the cells were incubated for additional 4 h at 37° C. Following this process, 180 μL of the medium was removed and 130 μL of DMSO was added to each well, or the medium was completely removed and 150 μL of DMSO was added to each well. Then the plate was shaken and mixed in a micro-oscillator. Finally the optical density (OD) of each sample was measured in a micro-plate reader at 550 nm. Cell inhibition rate was calculated according to the following formula: […]
(§2) According to cell inhibition rates, IC50 was calculated by LOGIT method. The experiments were repeated twice and the data was expressed as means±SD.

Another data set deals with A431. The experiment in a line: In vitro cell experiment (MTT), A431. The format is cell-based. The conditions noted are these: A-431, 72 h, human epidermoid carcinoma (EGFR1 overexpressing). On the procedure:
as §1, §2

A short description of data set [1]: Mouse maximum tolerated dose (MTD) experiment. The conditions noted are these: in vivo, mice, oral, administered 7 days then observed 7 days. On the procedure:
In the mouse MTD experiment, the mice were administrated with the present compounds.
Healthy mice, having a small difference in body's weights, were chosen. The chosen mice were placed in different layers of cages according to their body's weights. In each layer, the mice were randomly divided into groups. In each group, there were three mice.
The administration dosages were 1000, 500, 250, 125, 62.5 and 31.25 mg/kg respectively and each two dosages differed by a factor of 2. For each of administration dosages, three mice were allotted. The mice were administrated with the present compounds for 7 days and then observed for the next 7 days without the present compounds.
The present compounds were orally administrated with the mice according to the administration dosage and the body weight.

The next data set relates to SK-OV-3. The experiment in a line: In vitro cell experiment (MTT), SK-OV-3. Conditions: 72 h, human ovarian carcinoma cells (EGFR2 overexpressing). The format is cell-based. On the procedure: as §1, §2
A further data set deals with HCT116. The experiment in a line: In vitro cell experiment (MTT), HCT116. The format is cell-based. The conditions noted are these: HCT-116, 72 h, human colon carcinoma cells. On the procedure:
as §1, §2

The next data set relates to A549. Description: In vitro cell experiment (MTT), A549. The format is cell-based. Conditions: 72 h, human non-small-cell lung carcinoma cells (EGFR1 wildtype). On the procedure: as §1, §2
In a further data set the test system is HUVEC. The experiment in a line: In vitro cell experiment (MTT), HUVEC. The format is cell-based. Conditions: 72 h, human umbilical vein endothelial cell (KDR overexpressing). On the procedure: as §1, §2
For a further data set, the system named is HCC827. The experiment in a line: In vitro cell experiment (MTT), HCC827. The format is cell-based. The conditions noted are these: 72 h, human non-small cell lung carcinoma (EGFR1 19 exon mutation). On the procedure:
as §1, §2

A further data set deals with H292. The experiment in a line: In vitro cell experiment (MTT), H292. The format is cell-based. Conditions: NCI-H292, 72 h, human lung carcinoma cells (EGFR1 overexpressing). On the procedure:
as §1, §2

Another data set has as its system 3T3swiss. The experiment in a line: In vitro cell experiment (MTT), 3T3swiss. The format is cell-based. The conditions noted are these: Fibroblast, 72 h, mouse fibroblasts (PDGFR overexpressing). On the procedure: as §1, §2
A further data set deals with Bel-7402. The experiment in a line: In vitro cell experiment (MTT), Bel-7402. Conditions: 72 h, human hepatoma carcinoma cells. The format is cell-based. On the procedure:
as §1, §2

The subject of a further data set is PC-9. The experiment in a line: In vitro cell experiment (MTT), PC-9. The conditions noted are these: 72 h, human non-small-cell lung carcinoma cells (EGFR1 19 exon mutation). The format is cell-based. On the procedure: as §1, §2

`COc1cc2c(Nc3ccc(Br)cc3F)ncnc2cc1OCc1ccc2c(c1)OCO2` [Compound 1, 4-(4-bromo-2-fluoroanilino)-6-methoxy-7-((1,3-benzodioxole-5-yl)methoxy)quinazoline]: the IC50 in the data set with HT-29 came to 2820 nM; with A431, 1410 nM. Also, in data set [1], the MTD was 500 to 1000 mg/kg.

As to `COc1cc2c(Nc3ccc(Br)cc3F)ncnc2cc1OCc1cccc(C#N)c1` [Compound 3, 4-(4-bromo-2-fluoroanilino)-6-methoxy-7-(3-cyanobenzyloxy) quinazoline], the concentration for half-maximal inhibition (IC50) amounted to 2020 nM in the data set with SK-OV-3 and 892 nM with HCT116. The compound also came in with an MTD in data set [1] of 500 to 1000 mg/kg.

Consider `COc1cc2c(Nc3ccc(Br)cc3F)ncnc2cc1OCc1ccc(C(F)(F)F)cc1` [Compound 5, 4-(4-bromo-2-fluoroanilino)-6-methoxy-7-(4-trifluoromethyl-benzyloxy)quinazoline], for which the IC50 in the data set with HCT116 came to 1040 nM.

In the case of `COc1cc2c(Nc3ccc(Br)cc3F)ncnc2cc1OCCCCCC(N)=O` [Compound 6, 6-(4-(4-bromo-2-fluoroanilino)-6-methoxyquinazolin-7-yl-oxy)hexanamide], the IC50 in the data set with A549 amounted to 3930 nM; in the data set with HUVEC, 37.6 nM; in the data set with HCC827, 4.7 nM; with SK-OV-3, 2650 nM; with H292 it was 46.9 nM; in the data set with A431, 2100 nM. The MTD in [1] was more than 1000 mg/kg.

In the case of `COc1cc2c(Nc3ccc(Br)cc3F)ncnc2cc1OCc1cccc(C)n1` [Compound 7, 4-(4-bromo-2-fluoroanilino)-6-methoxy-7-((6-methylpyridine-2-yl)methoxy)quinazoline], in the data set with HCC827, inhibition was half-maximal at 8.6 nM (IC50). In data set [1], this compound displayed an MTD of 62.5 to 125 mg/kg.

`COc1cc2c(Nc3ccc(Br)cc3F)ncnc2cc1OCCn1c(C)nc2ccccc21` [Compound 8, 4-(4-bromo-2-fluoroanilino)-6-methoxy-7-(2-(2-methyl-1H-benzo[d]imidazole-1-yl)ethoxy)quinazoline] yielded an IC50 in the data set with SK-OV-3 of 2770 nM.

Take `COc1cc2c(Nc3ccc(Br)cc3F)ncnc2cc1OCc1ccc(N2CCOCC2)cc1` [Compound 12, 4-(4-bromo-2-fluoroanilino)-6-methoxy-7-(4-morpholinobenz-yloxy)quinazoline]: in the data set on HCT116, the half-inhibitory concentration (IC50) is 1090 nM.

Turning to `COc1cc2c(Nc3ccc(Br)cc3F)ncnc2cc1OCC1CCOCC1` [Compound 15, 4-(4-bromo-2-fluoroanilino)-6-methoxy-7-((tetrahydropyran-4-yl)methoxy)quinazoline], it took 2950 nM to reach half-maximal inhibition in the data set on A431 (IC50).

Take `COc1cc2c(Nc3ccc(Br)cc3F)ncnc2cc1OCc1csc(C)n1` [Compound 17, 4-(4-bromo-2-fluoroanilino)-6-methoxy-7-((2-methylthiazole-4-yl)methoxy)quinazoline]: the IC50 in the data set on HCC827 came out at 6.7 nM. The compound further gave an MTD in [1] of 500 to 1000 mg/kg.

`COc1cc2c(Nc3ccc(Br)cc3F)ncnc2cc1Oc1ccc(C(=O)N2CCOCC2)cn1` [Compound 18, (6-(4-(4-bromo-2-fluoroanilino)-6-methoxyquinazolin-7-yl-oxy)pyridine-3-yl)(morpholino)methanone] registered an IC50 with HCT116 of 962 nM.

Regarding `COc1cc2c(Nc3ccc(F)c(Cl)c3)ncnc2cc1OCCN1CCCC1` [Compound 20, 4-(3-chloro-4-fluoroanilino)-6-methoxy-7-(2-(pyrrolidine-1-yl)ethoxy)quinazoline], the 50% inhibitory concentration (IC50) in the data set with 3T3swiss was 1720 nM; in the data set on HT-29 it was 2230 nM; with A549, 2680 nM; in the data set on HCC827 it was 2.9 nM; with A431, 2140 nM; in the data set on Bel-7402 it was 5.74 µM. This compound gave an MTD in data set [1] of 125 to 250 mg/kg.

In the case of `COc1cc2c(Nc3ccc(Br)cc3F)ncnc2cc1OCCCC(N)=O` [Compound 23, 4-(4-(4-bromo-2-fluoroanilino)-6-methoxyquinazolin-7-yl-oxy)butanamide], the IC50 in the data set on 3T3swiss came to 2150 nM; with A549, 1410 nM; with HCC827 it was 5 nM; with SK-OV-3, 3360 nM.

Regarding `COc1cc2c(Nc3ccc(F)c(Cl)c3)ncnc2cc1OCCCCCC(N)=O` [Compound 24, 6-(4-(3-chloro-4-fluoroanilino)-6-methoxyquinazolin-7-yl-oxy)hexanamide], the half-inhibitory concentration (IC50) came to 1840 nM in the data set with HT-29; 2940 nM in the data set on A549; 5.6 nM with HCC827; 2450 nM in the data set on SK-OV-3; 81.8 nM in the data set on H292. This compound registered a maximum tolerated dose (MTD) in data set [1] of 125 to 250 mg/kg.

`COc1cc2c(Nc3ccc(F)c(Cl)c3)ncnc2cc1OCCCn1ccnc1` [Compound 25, 4-(3-chloro-4-fluoroanilino)-6-methoxy-7-(3-(1H-imidazole-1-yl)propoxy)quinazoline] showed a half-maximal inhibitory concentration (IC50) with HCC827 of 2.6 nM.

As for `COc1cc2c(Nc3ccc(Br)cc3F)ncnc2cc1OCCc1csc(C)n1` [Compound 26, 4-(4-bromo-2-fluoroanilino)-6-methoxy-7-(2-(2-methylthiazol-4-yl)ethoxy)quinazoline], it took 1.4 nM to reach half-maximal inhibition in the data set with HCC827 (IC50).

On to `COc1cc2c(Nc3ccc(F)c(Cl)c3)ncnc2cc1OCc1cnc(C)s1` [Compound 27, 4-(3-chloro-4-fluoroanilino)-6-methoxy-7-((2-methylthiazol-5-yl)methoxy)quinazoline], for which the 50% inhibitory concentration (IC50) in the data set with HT-29 was 2920 nM; in the data set with A549, 3890 nM; with HCC827, 4.6 nM; in the data set with H292, 78.3 nM. In data set [1], this compound registered an MTD of 500 to 1000 mg/kg.

`COc1cc2c(Nc3ccc(F)c(Cl)c3)ncnc2cc1OCc1csc(C)n1` [Compound 27′, 4-(3-chloro-4-fluoroanilino)-6-methoxy-7-((2-methylthiazol-4-yl)methoxy)quinazoline] had a half-inhibitory concentration (IC50) in the data set with HCC827 of 6.2 nM.

The compound `CNC(=O)CCCCCOc1cc2ncnc(Nc3ccc(Br)cc3F)c2cc1OC` [Compound 31, N-methyl-6-(4-(4-bromo-2-fluoroanilino)-6-methoxyquinazolin-7-yloxy)hexanamide] came in with an IC50 in the data set with HCC827 of 10.7 nM.

As for `COc1cc2c(Nc3ccc(Br)cc3F)ncnc2cc1OCCCCCC(=O)N(C)C` [Compound 32, N, N-dimethyl-6-(4-(4-bromo-2-fluoroanilino)-6-methoxyquinazolin-7-yloxy)hexanamide], the results for the 50% inhibitory concentration (IC50) in the data set on A549, in the data set with HCC827 and in the data set on PC-9 were 2700 nM, 11 nM and 6.7 nM, respectively. In addition, the maximum tolerated dose (MTD) in data set [1] is 500 to 1000 mg/kg.

`COc1cc2c(Nc3ccc(Br)cc3F)ncnc2cc1OCCCCC(N)=O` [Compound 33, 5-(4-(4-bromo-2-fluoroanilino)-6-methoxyquinazolin-7-yl-oxy)pentanamide]: the 50% inhibitory concentration (IC50) worked out at 3570 nM in the data set on A549, 9.5 nM with HCC827, 73.4 nM in the data set on H292 and 8.3 nM in the data set with PC-9. For the same compound, the maximum tolerated dose (MTD) in [1] was 62.5 to 125 mg/kg.

Regarding `COc1cc2c(Nc3ccc(Br)cc3F)ncnc2cc1OCCn1ccnc1` [Compound 34, 4-(4-bromo-2-fluoroanilino)-6-methoxy-7-(2-(1H-imidazol-1-yl)ethoxy)quinazoline], the half-inhibitory concentration (IC50) in the data set with A549 was determined as 1290 nM; in the data set with HCC827, 8.2 nM; in the data set on H292, 90.8 nM; in the data set with PC-9, 5.7 nM. This compound also came in with an MTD in data set [1] of 125 to 250 mg/kg.

Regarding `COc1cc2c(Nc3ccc(F)c(Cl)c3)ncnc2cc1OCCn1ccnc1` [Compound 36, 4-(3-chloro-4-fluoroanilino)-6-methoxy-7-(2-(1H-imidazol-1-yl)ethoxy)quinazoline], the 50% inhibitory concentration (IC50) came out at 3640 nM in the data set on A549 and 2920 nM with SK-OV-3.

As to `COc1cc2c(Nc3ccc(F)c(Cl)c3)ncnc2cc1OCCCCC(N)=O` [Compound 41, 5-(4-(3-chloro-4-fluoroanilino)-6-methoxyquinazolin-7-yl-oxy)pentanamide], the 50% inhibitory concentration (IC50) in the data set with A549 was 2710 nM; in the data set with HCC827 it was 0.9 nM; in the data set on SK-OV-3, 2680 nM; with H292, 89.9 nM.

For the compound `CNC(=O)CCCCCOc1cc2ncnc(Nc3ccc(F)c(Cl)c3)c2cc1OC` [Compound 42, N-methyl-6-(4-(3-chloro-4-fluoroanilino)-6-methoxyquinazolin-7-yloxy)hexanamide], the midpoint of inhibition with HCC827, the IC50, lay at 2.8 nM.

Compound `COc1cc2c(Nc3ccc(F)c(Cl)c3)ncnc2cc1OCCCCCC(=O)N(C)C` [Compound 43, N, N-dimethyl-6-(4-(3-chloro-4-fluoroanilino)-6-methoxyquinazolin-7-yloxy)hexanamide] showed a half-inhibitory concentration (IC50) in the data set on HCC827 of 4.1 nM.

The values above are taken from patent publication US10421754B2, “Quinazoline derivative” (CSPC ZHONGQI PHARMACEUTICAL TECHNOLOGY (SHIJIAZHUANG) CO., …, priority 2014, dated 2019).
